Data: patent US20150238444A1, “CHLORHEXIDINE GLUCONATE SOLUBILIZED IN A HYDROPHOBIC MONOACYLGLYCERIDE” (3M INNOVATIVE PROPERTIES COMPANY, priority 2012, published 2015)

Test: Screening of CHG solubility in hydrophobic vehicles after vacuum-stripping water
Format: physicochemical
Method: General Method for Vacuum-Stripping Water from CHG Solutions. A 25 g sample of CHG/water solution (20 wt. CHG) was added to 45 g of the hydrophobic monoacylglyceride of interest in a 200 mL round bottom flask. The flask was put in a 60° C. oil bath and stirred with a magnetic stir bar. Vacuum (less than 3.3 kilopascal (25 Torr)) was pulled until bubbling stopped and the weight had closely approached the theoretical value of 50 grams—usually 30-90 minutes. […] In those cases, after nearly all the water was removed, additional hydrophobic monoacylglyceride was added to bring the final weight to 50 grams.
Screening tests were conducted to determine the solubility of CHG in a variety of hydrophobic vehicles. Samples were prepared by mixing CHG (20 wt. % solution in water, obtained from Xttrium Laboratories Inc., Chicago, Ill.) with the vehicle and vacuum stripping in accordance with the General Method for Vacuum-Stripping Water from CHG Solutions. The resulting concentration of CHG and residual water were determined. Also, the final state of the solution was qualitatively evaluated to determine whether the mixture was transparent and apparently homogenous, or clearly inhomogeneous.

[1] = after vacuum stripping of water from CHG/vehicle mixture

Experimental Solubility with CHG | Final State (CHG 10 wt. %, 23-60° C.) | Water wt. % (residual water) [1] [% wt. %] | Molecule | further results
Yes |  |  | CCCCCCCC(=O)OCC(O)CO (stereo not drawn) [Glyceryl monocaprylate] | Final State (CHG 20 wt. %, 23-60° C.): Homogeneous
Yes | Homogeneous |  | CC(C)CCCCCCCCCCCCCCC(=O)OCC(O)CO (stereo not drawn) [Glyceryl monoisostearate] | Final State (CHG 16 wt. %, 23-60° C.): Homogeneous; Final State (CHG 20 wt. %, 60° C.): Homogeneous
Yes |  | 0.7 | CCCCCCCCCCCC(=O)OCC(O)CO (stereo not drawn) [Glyceryl monolaurate] | Final State (CHG 20 wt. %, 75° C.): Homogeneous
Yes |  | 0.2 | CCCCCCCCCCCCCCCCCC(=O)OCC(O)CO (stereo not drawn) [Glyceryl monostearate] | Final State (CHG 10 wt. %, 80° C.): Homogeneous
No | Inhomogeneous |  | Polyglycerol-2-Triisostearate | CHG wt. % (resulting concentration of CHG in the vehicle) [1]: 10% wt. %
No | Inhomogeneous |  | Trigyceryl diisostearate | Final State (CHG 1 wt. %, 23-60° C.): Inhomogeneous

Molecule | Experimental Solubility with CHG | Final State (CHG 10 wt. %, 23-60° C.) | Water wt. % (residual water) [1] [% wt. %] | further results
CCCCCCCC/C=C\CCCCCCCC(=O)OCC(O)CO (stereo not drawn) [Glyceryl monooleate] | Yes | Homogeneous | 0.3 | 
